In article PMC6299220 (mBio, 2018):
Converted amounts (≈) assume the structure as drawn. Read-outs that look alike come from different tables or passages of the source.

What was measured:
[1] = in vitro; details: African green monkey
[2] = tested on: M. tuberculosis H37Rv; assay: microbe, parasite or virus in culture; type: cell-based, Mycobacterium tuberculosis
[3] = in vitro; details: mouse, microsomes
[4] = physchem; details: pH 7.4, aqueous buffer, kinetic from dmso stock
[5] = mouse, microsomes
[6] = Mouse liver microsomal (MLM) stability; details: mouse, liver microsomes
[7] = molecular target: KasA (Mycobacterium tuberculosis, UniProt P9WQD9); assay: Microscale thermophoresis (MST) binding assay; details: 49.5 nM labeled KasA
Chain of KasA (P9WQD9 whole entry): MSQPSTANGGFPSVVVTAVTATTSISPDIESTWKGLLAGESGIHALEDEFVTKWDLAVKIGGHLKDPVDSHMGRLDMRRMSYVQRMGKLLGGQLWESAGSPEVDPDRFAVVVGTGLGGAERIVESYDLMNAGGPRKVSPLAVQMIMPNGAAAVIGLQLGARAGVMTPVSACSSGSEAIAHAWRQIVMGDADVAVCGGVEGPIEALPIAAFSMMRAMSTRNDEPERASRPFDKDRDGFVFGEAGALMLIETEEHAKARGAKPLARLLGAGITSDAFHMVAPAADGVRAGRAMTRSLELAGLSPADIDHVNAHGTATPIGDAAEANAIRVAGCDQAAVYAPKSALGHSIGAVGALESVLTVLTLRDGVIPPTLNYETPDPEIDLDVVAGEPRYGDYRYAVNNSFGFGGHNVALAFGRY

[8] = Mycobacterium tuberculosis, H37RV
[9] = MLM stability t1/2 without NADPH

Row | Compound | CC50 [1] | MIC [2, 8] | other results
1 | COCCCCS(=O)(=O)Nc1ccc2cnn(C)c2c1 [5a-15, 4-Methoxy-N-(1-methyl-1H-indazol-6-yl)butane-1-sulfonamide] | > 100 µM | > 100 µM | MIC [2]: >100 µM
2 | Cn1ncc2ccc(NS(=O)(=O)C3CCCC3)cc21 [5a-25, N-(1-Methyl-1H-indazol-6-yl)cyclopentanesulfonamide] |  | > 100 µM | 
3 | CCCCS(=O)(=O)Nc1ccc2cnn(C(C)C)c2c1 [5a-5, N-(1-Isoproply-1H-indazol-6-yl)butane-1-sulfonamide] |  | > 100 µM | half-life ([3]; MLM stability t1/2): 0.878 min; half-life [3, 9]: > 3060 min; solubility kinetic [4]: > 500 µM; MLM stability clint [5]: 789 μl/mi/mg protein
4 | Cn1ncc2ccc(NS(=O)(=O)C3CCCCC3)cc21 [5a-26, N-(1-Methyl-1H-indazol-6-yl)cyclohexanesulfonamide] |  | 12.5 µM (≈ 3.67 µg/mL) | 
5 | [2H]C([2H])([2H])n1ncc2ccc(NS(=O)(=O)CCCCOC)cc21 [5a-32, 4-Methoxy-N-(1-(methyl-d3)-1H-indazol-6-yl)butane-1-sulfonamide] | > 100 µM | > 100 µM | 
6 | CCCOC(=O)Nc1ccc2cnn(C)c2c1 [5d-2, n-propyl (1-methyl-1H-indazol-6-yl)carbamate] | 6.7 µM | > 100 µM | 
7 | CCOC(=O)Nc1ccc2cnn(C)c2c1 [5d-1, Ethyl (1-methyl-1H-indazol-6-yl)carbamate] | 110 µM | > 100 µM | half-life ([3]; MLM stability t1/2): 1.16 min; solubility kinetic [4]: > 500 µM; MLM stability clint [5]: 597 μl/mi/mg protein
8 | CC(C)S(=O)(=O)Nc1ccc2cnn(C)c2c1 [5a-11, N-(1-Methyl-1H-indazol-6-yl)propane-2-sulfonamide] |  | > 100 µM | 
9 | CCCCNC(=S)Nc1ccc2cnn(C)c2c1 [5b-1, 1-Butyl-3-(1-methyl-1H-indazol-6-yl)thiourea] | 25 µM | 3.1 µM (≈ 0.813 µg/mL) | half-life ([3]; MLM stability t1/2): 1.17 min; half-life [3, 9]: > 3060 min; solubility kinetic [4]: 131 µM (≈ 34.4 µg/mL); MLM stability clint [5]: 595 μl/mi/mg protein
10 | Cn1ncc2ccc(NS(=O)(=O)N3CCCCC3)cc21 [5a-28, N-(1-Methyl-1H-indazol-6-yl)piperidine-1-sulfonamide] |  | > 100 µM | 
11 | CCCC(CC)S(=O)(=O)Nc1ccc2cnn(C)c2c1 (centres unmarked) [5a-17, N-(1-Methyl-1H-indazol-6-yl)hexane-3-sulfonamide] | > 100 µM | > 100 µM | 
12 | Cn1ncc2ccc(NS(C)(=O)=O)cc21 [5a-8, N-(1-Methyl-1H-indazol-6-yl)methanesulfonamide] |  | > 100 µM | 
13 | CC(C)CCCS(=O)(=O)Nc1ccc2cnn(C)c2c1 [5a-19, 4-Methyl-N-(1-methyl-1H-indazol-6-yl)pentane-1-sulfonamide] |  | > 100 µM | 
14 | CCCCC(=O)Nc1ccc2cnn(C)c2c1 [5c-2, N-(1-Methyl-1H-indazol-6-yl)pentanamide] |  | > 100 µM | half-life ([3]; MLM stability t1/2): 0.668 min; half-life [3, 9]: 13.1 min; solubility kinetic [4]: > 500 µM; MLM stability clint [5]: 1,040 μl/mi/mg protein
15 | CCCCS(=O)(=O)Nc1ccc2cnn(CC)c2c1 [5a-3, N-(1-Ethyl-1H-indazol-6-yl)butane-1-sulfonamide] | 44.4 µM | 6.2 µM (≈ 1.74 µg/mL) | half-life ([3]; MLM stability t1/2): 1.29 min; half-life [3, 9]: > 3060 min; solubility kinetic [4]: 472 µM (≈ 133 µg/mL); MLM stability clint [5]: 536 μl/mi/mg protein
16 | CCCCCCS(=O)(=O)Nc1ccc2cnn(C)c2c1 [5a-13, N-(1-Methyl-1H-indazol-6-yl)hexane-1-sulfonamide] | > 170 µM | > 100 µM | 
17 | CCCCNC(=O)Nc1ccc2cnn(C)c2c1 [5b-2, 1-Butyl-3-(1-methyl-1H-indazol-6-yl)urea] |  | > 100 µM | 
18 | CCCCS(=O)(=O)Nc1ccc2cnn(CCC)c2c1 [5a-4, N-(1-Propyl-1H-indazol-6-yl)butane-1-sulfonamide] |  | > 100 µM | half-life ([3]; MLM stability t1/2): 0.753 min; half-life [3, 9]: > 3060 min; solubility kinetic [4]: 130 µM (≈ 38.4 µg/mL); MLM stability clint [5]: 921 μl/mi/mg protein
19 | CCCCS(=O)(=O)Nc1ccc2cnn(Cc3ccccc3)c2c1 [5a-7, N-(1-Benzyl-1H-indazol-6-yl)butane-1-sulfonamide] |  | > 100 µM | half-life ([3]; MLM stability t1/2): 2.88 min; half-life [3, 9]: > 3060 min; solubility kinetic [4]: 33.8 µM (≈ 11.6 µg/mL); MLM stability clint [5]: 241 μl/mi/mg protein
20 | CCCCCS(=O)(=O)Nc1ccc2cnn(C)c2c1 [5a-12, N-(1-Methyl-1H-indazol-6-yl)pentane-1-sulfonamide] | > 100 µM | 0.2 µM (≈ 0.0563 µg/mL) | improvement in MIC/whole-cell activity over DG167 [2]: 2 fold
21 | CCCCS(=O)(=O)Nc1ccc2cnn(-c3ccccc3)c2c1 [5a-6, N-(1-Phenyl-1H-indazol-6-yl)butane-1-sulfonamide] |  | > 100 µM | half-life ([3]; MLM stability t1/2): 0.505 min; half-life [3, 9]: > 3060 min; solubility kinetic [4]: 33.7 µM (≈ 11.1 µg/mL); MLM stability clint [5]: 1,370 μl/mi/mg protein
22 | [2H]C([2H])([2H])n1ncc2ccc(NS(=O)(=O)CCCCC)cc21 [5a-31, N-(1-(Methyl-d3)-1H-indazol-6-yl)pentane-1-sulfonamide] | > 100 µM | 0.2 µM (≈ 0.0569 µg/mL) | improvement in MIC/whole-cell activity over DG167 [2]: 2 fold
23 | Cn1ncc2ccc(NS(=O)(=O)CC3CCCCC3)cc21 [5a-29, 1-Cyclohexyl-N-(1-methyl-1H-indazol-6-yl)methanesulfonamide] |  | > 100 µM | 

Row | Compound | CC50 [1] | MIC [2, 8] | other results
24 | CC(C)=CCC/C(C)=C/CNCCNC1C2CC3CC(C2)CC1C3 (centres unmarked) [SQ109] |  | 0.8 µM (≈ 0.264 µg/mL) | 
25 | O=[N+]([O-])c1cn2c(n1)OC[C@@H](OCc1ccc(OC(F)(F)F)cc1)C2 [PA824] |  | 0.1 µM (≈ 0.0359 µg/mL) | 
26 | Cn1ncc2ccc(NS(=O)(=O)CCc3ccccc3)cc21 [5a-22, N-(1-Methyl-1H-indazol-6-yl)-2-phenylethane-1-sulfonamide] | 19.8 µM | > 100 µM | 
27 | CCc1cc(C(N)=S)ccn1 [ETH, ethionamide] |  | 25 µM (≈ 4.16 µg/mL) | 
28 | CCCCS(=O)(=O)N(C)c1ccc2cnn(C)c2c1 [5e, N-Methyl-N-(1-methyl-1H-indazol-6-yl)butane-1-sulfonamide] |  | > 100 µM | 
29 | Cn1ncc2ccc(NS(=O)(=O)C3CCC3)cc21 [5a-24, N-(1-Methyl-1H-indazol-6-yl)cyclobutanesulfonamide] |  | > 100 µM | 
30 | Cn1ncc2ccc(NS(=O)(=O)C3CC3)cc21 [5a-23, N-(1-Methyl-1H-indazol-6-yl)cyclopropanesulfonamide] |  | > 100 µM | 
31 | CCCCS(=O)(=O)Nc1ccc2[nH]nc(C)c2c1 [5g, N-(3-Methyl-1H-indazol-5-yl)butane-1-sulfonamide] | 94 µM | 0.2 µM (≈ 0.0535 µg/mL) | half-life ([6]; MLM stability t1/2, with NADPH): 11.5 min; half-life ([6]; MLM stability t1/2 without NADPH, without NADPH): 141 min; improvement in MIC/whole-cell activity over DG167 [2]: 2 fold; Kd [7]: 0.0465 ± 0.0187 µM; MLM stability clint [5]: 60.3 μl/mi/mg protein
32 | COc1nc2ccc(Br)cc2cc1[C@@H](c1ccccc1)[C@@](O)(CCN(C)C)c1cccc2ccccc12 [BDQ, bedaquiline] |  | 1 µM (≈ 0.556 µg/mL) | 
33 | Cn1ncc2ccc(NS(=O)(=O)CCCCC#N)cc21 [5a-14, 4-Cyano-N-(1-methyl-1H-indazol-6-yl)butane-1-sulfonamide] | > 100 µM | 3.1 µM (≈ 0.906 µg/mL) | 
34 | Cn1ncc2ccc(NS(=O)(=O)C3CCC(C(F)(F)F)CC3)cc21 (centres unmarked) [5a-27, N-(1-Methyl-1H-indazol-6-yl)-4-(trifluoromethyl)cyclohexane-1-sulfonamide] |  | > 100 µM | 
35 | COc1c(N2C[C@@H]3CCCN[C@@H]3C2)c(F)cc2c(=O)c(C(=O)O)cn(C3CC3)c12 [Moxi, moxifloxacin] |  | 0.03 µM (≈ 0.012 µg/mL) | 
36 | [2H]C([2H])([2H])n1ncc2ccc(NS(=O)(=O)CCCC)cc21 [5a-30, N-(1-(Methyl-d3)-1H-indazol-6-yl)butane-1-sulfonamide] | 180 µM |  | half-life [3]: 16.8 min; half-life [3, 9]: > 3060 min; solubility kinetic [4]: > 500 µM; MLM stability clint [5]: 41.3 μl/mi/mg protein
37 | CCS(=O)(=O)Nc1ccc2cnn(C)c2c1 [5a-9, N-(1-Methyl-1H-indazol-6-yl)ethanesulfonamide] |  | > 100 µM | 
38 | CCCCOC(=O)Nc1ccc2cnn(C)c2c1 [5d-3, Butyl (1-methyl-1H-indazol-6-yl)carbamate] | 25 µM | > 100 µM | 
39 | COCCC(C)CCS(=O)(=O)Nc1ccc2cnn(C)c2c1 (centres unmarked) [5a-16, 5-Methoxy-3-methyl-N-(1-methyl-1H-indazol-6-yl)pentane-1-sulfonamide] |  | > 100 µM | 
40 | Cc1ccc(S(=O)(=O)Nc2ccc3cnn(C)c3c2)cc1 [5a-20, 4-Methyl-N-(1-methyl-1H-indazol-6-yl)benzenesulfonamide] |  | 50 µM (≈ 15.1 µg/mL) | 
41 | CO[C@H]1/C=C/O[C@@]2(C)Oc3c(C)c(O)c4c(O)c(c(/C=N/N5CCN(C)CC5)c(O)c4c3C2=O)NC(=O)/C(C)=C\C=C\[C@H](C)[C@H](O)[C@@H](C)[C@@H](O)[C@@H](C)[C@H](OC(C)=O)[C@@H]1C [RIF, rifampin] |  | 0.001 µM (≈ 0.000823 µg/mL) | 
42 | CC[C@@H](CO)NCCN[C@@H](CC)CO [EMB, ethambutol] |  | 0.78 µM (≈ 0.159 µg/mL) | 
43 | CCC(=O)Nc1ccc2cnn(C)c2c1 [5c-1, N-(1-methyl-1H-indazol-6-yl)propionamide] |  | > 100 µM | half-life ([3]; MLM stability t1/2): 1.29 min; solubility kinetic [4]: 472 µM (≈ 95.9 µg/mL); MLM stability clint [5]: 536 μl/mi/mg protein
44 | CCCC(C)S(=O)(=O)Nc1ccc2cnn(C)c2c1 (centres unmarked) [5a-18, N-(1-Methyl-1H-indazol-6-yl)pentane-2-sulfonamide] | > 100 µM | > 100 µM | 
45 | CCCS(=O)(=O)Nc1ccc2cnn(C)c2c1 [5a-10, N-(1-Methyl-1H-indazol-6-yl)propane-1-sulfonamide] |  | 12.5 µM (≈ 3.17 µg/mL) | 
46 | Cn1ncc2ccc(NS(=O)(=O)Cc3ccccc3)cc21 [5a-21, N-(1-Methyl-1H-indazol-6-yl)-1-phenylmethanesulfonamide] |  | > 100 µM | 
